# Patent US4812465A, “Triazole derivatives for use as antimycotic agents” (CL Pharma Aktiengesellschaft, priority 1986, dated 1989)
# Tests used:
# Experiment in all cases: In vitro determination of minimum inhibitory concentration (MIC), serial dilution
# Assay type in all cases: cell-based
# [1] = system: Epidermophyton floccosum; settings: pH 6.0, 22° C., 14 days; for MIC: 336 h, pH 6, Epidermophyton floccosum
# Protocol: (§1) The antimycotic activities of the compounds were measured by in vitro determination of the minimum inhibitory concentration (MIC) for yeasts, molds and dermatophytes.
# (§2) 6 dermatophytes, 2 yeasts and 4 molds were used for testing with fungi, as follows:
# (§3) The minimum inhibitory concentration (MIC) was determined in serial dilution tests in test tubes. The volume of the liquid nutrient medium in each test tube was 4.5 ml.
# (§4) The substances were dissolved in DMSO and diluted with sterile distilled water to 10 concentrations (100, 50, 25, 12.5, 6.25, 3.12, 1.56, 0.78, 0.39 and 0.19 μg/ml). 0.5 ml of each of these dilution steps was added to liquid nutrient medium. Thus, a constant concentration of solvent in all the nutrient media was ensured, irrespective of the active compound concentration.
# (§5) A comparison solution which contained only the solvent in appropriate concentration was included when carrying out each of the tests.
# (§6) The individual strains were maintained on Sabouraud/beerwort agar slants and, before they were used in a test, they underwent a passage on a modified Sabouraud liquid nutrient medium. The strains were then harvested, washed and converted into a suspension of McFaerland 3 in the case of yeasts and molds and of McFaerland 4-5 in the case of dermatophytes.
# (§7) The amount of material inoculated (inoculum) was 100 μl/test tube (inoculated densities: yeasts about 10^3 /ml, molds about 10^4 /ml, dermatophytes about 10^4 /ml). The pH of the liquid nutrient medium was 6.0. After inoculation had taken place the fungi were incubated at 22° C. for 14 days.
# (§8) The MIC was then determined. The concentration step at which growth was no longer visible on macroscopic inspection was used for the determination of the MIC. The comparison substance used was 1-(2-(2,4-dichlorophenyl)-2-(2,4-dichlorophenylmethoxy)ethyl)-1H-imidazole(compound A).
# [2] = system: Trichophyton mentagrophytes; settings: pH 6.0, 22° C., 14 days; for MIC: 336 h, pH 6, Trichophyton mentagrophytes
# Protocol: as §1, §2, §3, §4, §5, §6, §7, §8
# [3] = system: Candida tropicalis; settings: 336 h, pH 6, Candida tropicalis, pH 6.0, 22° C., 14 days, read-out: MIC C.trop
# Protocol: as §1, §2, §3, §4, §5, §6, §7, §8
# [4] = system: Microsporum gypseum; settings: Nannizzia gypsea, 336 h, pH 6, Microsporum gypseum; pH 6.0, 22° C., 14 days; read-out: MIC Mi.gyp
# Protocol: as §1, §2, §3, §4, §5, §6, §7, §8
# [5] = system: Absidia ramosa; settings: pH 6.0, 22° C., 14 days; for MIC: Lichtheimia ramosa, 336 h, pH 6, Absidia ramosa
# Protocol: as §1, §2, §3, §4, §5, §6, §7, §8
# [6] = system: Trichophyton verrucosum; settings: pH 6.0, 22° C., 14 days; for MIC: 336 h, pH 6, Trichophyton verrucosum
# Protocol: as §1, §2, §3, §4, §5, §6, §7, §8
# [7] = system: Aspergillus fumigatus; settings: 20160 min, pH 6
# Protocol: as §1, §2, §3, §4, §5, §6, §7, §8
# [8] = system: Microsporum canis; settings: 336 h, pH 6, Microsporum canis, pH 6.0, 22° C., 14 days
# Protocol: as §1, §2, §3, §4, §5, §6, §7, §8
# [9] = system: Candida albicans; settings: 336 h, pH 6, Candida albicans, pH 6.0, 22° C., 14 days, read-out: MIC C.alb
# Protocol: as §1, §2, §3, §4, §5, §6, §7, §8
# [10] = system: Mucor mucedo plus; settings: pH 6.0, 22° C., 14 days; for MIC: Mucor mucedo, 336 h, pH 6, Mucor mucedo plus
# Protocol: as §1, §2, §3, §4, §5, §6, §7, §8
# [11] = system: Mucor mucedo minus; settings: pH 6.0, 22° C., 14 days; for MIC: Mucor mucedo, 336 h, pH 6, Mucor mucedo minus
# Protocol: as §1, §2, §3, §4, §5, §6, §7, §8
# [12] = system: Trichophyton rubrum; settings: pH 6.0, 22° C., 14 days; for MIC: 336 h, pH 6, Trichophyton rubrum
# Protocol: as §1, §2, §3, §4, §5, §6, §7, §8
SMILES,MIC [1],MIC [2],MIC [3],MIC [4],MIC [5],MIC [6],MIC Asp.fu. [7],MIC [8],MIC [9],MIC [10],MIC [11],MIC [12],MIC Ep.flo [1],MIC Tri.me. [2],MIC Abs.ra. ([5]; Absidia ramosa),MIC Tri.ve. [6],MIC Mu.mu+ ([10]; Mucor mucedo plus),MIC Mu.mu- ([11]; Mucor mucedo minus),MIC Tri.ru. [12]
Cc1cc(Cl)ccc1OCCCNC(Cn1cncn1)c1ccc(Cl)cc1Cl (stereo not drawn) [Compound 68],25 µg/mL,25 µg/mL,25 µg/mL,25 µg/mL,100 µg/mL,6.25 µg/mL,100 µg/mL,12.5 µg/mL,50 µg/mL,6.25 µg/mL,12.5 µg/mL,50 µg/mL,–,–,–,–,–,–,–
Clc1ccc(C(Cn2cncn2)NCCCOc2c(Cl)cccc2Cl)c(Cl)c1 (stereo not drawn) [Compound 72],6.25 µg/mL,25 µg/mL,3.12 µg/mL,6.25 µg/mL,100 µg/mL,1.56 µg/mL,"3,12 μg/ml",25 µg/mL,3.12 µg/mL,6.25 µg/mL,6.25 µg/mL,3.12 µg/mL,–,–,–,–,–,–,–
Clc1ccc(C(Cn2ccnc2)NCCCSc2ccccc2)c(Cl)c1 (stereo not drawn) [Compound 90],3.12 µg/mL,25 µg/mL,3.12 µg/mL,3.12 µg/mL,12.5 µg/mL,1.56 µg/mL,"3,12 μg/ml",3.12 µg/mL,6.25 µg/mL,6.25 µg/mL,3.12 µg/mL,1.56 µg/mL,–,–,–,–,–,–,–
Cc1ccc(SCCCNC(Cn2ccnc2)c2ccc(Cl)cc2Cl)cc1 (stereo not drawn) [Compound 92],0.78 µg/mL,0.78 µg/mL,12.5 µg/mL,0.78 µg/mL,6.25 µg/mL,0.78 µg/mL,"0,78 μg/ml",3.12 µg/mL,12.5 µg/mL,0.78 µg/mL,3.12 µg/mL,0.78 µg/mL,–,–,–,–,–,–,–
Clc1ccc(SCCCNC(Cn2cncn2)c2ccc(Cl)cc2Cl)cc1 (stereo not drawn) [Compound 95],0.78 µg/mL,3.12 µg/mL,12.5 µg/mL,3.12 µg/mL,100 µg/mL,3.12 µg/mL,"12,5 μg/ml",6.25 µg/mL,12.5 µg/mL,3.12 µg/mL,3.12 µg/mL,1.56 µg/mL,–,–,–,–,–,–,–
Clc1ccc(SCCCNC(Cn2cncn2)c2ccc(Cl)cc2)cc1 (stereo not drawn) [Compound 99],6.25 µg/mL,6.25 µg/mL,12.5 µg/mL,3.12 µg/mL,100 µg/mL,3.12 µg/mL,100 µg/mL,12.5 µg/mL,6.25 µg/mL,12.5 µg/mL,6.25 µg/mL,3.12 µg/mL,–,–,–,–,–,–,–
Clc1ccc(SCCCNC(Cn2ccnc2)c2ccc(Br)cc2)cc1 (stereo not drawn) [Compound 100],6.25 µg/mL,6.25 µg/mL,12.5 µg/mL,6.25 µg/mL,6.25 µg/mL,6.25 µg/mL,"6,25 μg/ml",6.25 µg/mL,3.12 µg/mL,12.5 µg/mL,25 µg/mL,3.12 µg/mL,–,–,–,–,–,–,–
Clc1ccc(C(Cn2cncn2)NCCCSc2ccc(Br)cc2)c(Cl)c1 (stereo not drawn) [Compound 104],12.5 µg/mL,25 µg/mL,12.5 µg/mL,6.25 µg/mL,100 µg/mL,12.5 µg/mL,100 µg/mL,100 µg/mL,25 µg/mL,12.5 µg/mL,50 µg/mL,6.25 µg/mL,–,–,–,–,–,–,–

# The remaining lines, values ahead:
MIC [1],MIC [2],MIC [3],MIC [4],MIC [5],MIC [6],MIC Asp.fu. [7],MIC [8],MIC [9],MIC [10],MIC [11],MIC [12],MIC Ep.flo [1],MIC Tri.me. [2],MIC Abs.ra. ([5]; Absidia ramosa),MIC Tri.ve. [6],MIC Mu.mu+ ([10]; Mucor mucedo plus),MIC Mu.mu- ([11]; Mucor mucedo minus),MIC Tri.ru. [12],SMILES
–,–,3.12 µg/mL,0.39 µg/mL,–,–,"0,39 μg/ml",0.78 µg/mL,3.12 µg/mL,–,–,–,"0,10 μg/ml","0,10 μg/ml","12,5 μg/ml","0,10 μg/ml","3,12 μg/ml","3,12 μg/ml","0,10 μg/ml",Clc1ccc(C(Cn2ccnc2)NCCCSc2ccc(Br)cc2)c(Cl)c1 (stereo not drawn) [Compound 105]
3.12 µg/mL,3.12 µg/mL,6.25 µg/mL,3.12 µg/mL,12.5 µg/mL,3.12 µg/mL,"12,5 μg/ml",12.5 µg/mL,6.25 µg/mL,6.25 µg/mL,12.5 µg/mL,3.12 µg/mL,–,–,–,–,–,–,–,Clc1ccc(C(Cn2ccnc2)NCCCSc2c(Cl)cccc2Cl)c(Cl)c1 (stereo not drawn) [Compound 112]
3.12 µg/mL,3.12 µg/mL,6.25 µg/mL,3.12 µg/mL,6.25 µg/mL,1.56 µg/mL,"0,78 μg/ml",0.78 µg/mL,3.12 µg/mL,6.25 µg/mL,3.12 µg/mL,1.56 µg/mL,–,–,–,–,–,–,–,Clc1ccc(C(Cn2ccnc2)NCCCSc2ccc3ccccc3c2)c(Cl)c1 (stereo not drawn) [Compound 114]
12.5 µg/mL,50 µg/mL,12.5 µg/mL,3.12 µg/mL,100 µg/mL,3.12 µg/mL,"25,0 μg/ml",25 µg/mL,25 µg/mL,12.5 µg/mL,25 µg/mL,6.25 µg/mL,–,–,–,–,–,–,–,Clc1ccc(OCCCCNC(Cn2cncn2)c2ccc(Cl)cc2Cl)cc1 (stereo not drawn) [Compound 126]
0.78 µg/mL,0.78 µg/mL,3.12 µg/mL,3.12 µg/mL,6.25 µg/mL,6.25 µg/mL,"6,25 μg/ml",12.5 µg/mL,6.25 µg/mL,0.78 µg/mL,3.12 µg/mL,3.12 µg/mL,–,–,–,–,–,–,–,Clc1ccc(SCCCCCNC(Cn2ccnc2)c2ccc(Cl)cc2Cl)cc1 (stereo not drawn) [Compound 132]
3.12 µg/mL,3.12 µg/mL,12.5 µg/mL,1.56 µg/mL,3.12 µg/mL,1.56 µg/mL,"3,12 μg/ml",1.56 µg/mL,3.12 µg/mL,3.12 µg/mL,3.12 µg/mL,1.56 µg/mL,–,–,–,–,–,–,–,Clc1ccc(SCCCNC(Cn2ccnc2)c2cccc3ccccc23)cc1 (stereo not drawn) [Compound 139]
